Measured values as given in article PMC8298602, “14-3-3-protein regulates Nedd4-2 by modulating interactions between HECT and WW domains” (Communications Biology, 2021).
Non-standard residues stand in square brackets, D forms with d. Residues, ends and D or L forms follow the SMILES beside them. *: point of attachment. FITC = O=C1OC2(c3ccc(O)cc3Oc3cc(O)ccc32)c2ccc(NC(=S)*)cc21; pT = C[C@@H](OP(=O)(O)O)[C@H](N)C(=O)O; pS = N[C@@H](COP(=O)(O)O)C(=O)O

Columns and labels:
Format in all cases: binding
Settings in all cases: 14-3-3 titrated 80 to 0.003418, three replicates
[1] = biological target: T1, 14-3-3ε (Homo sapiens, UniProt P62258); assay: fluorescence polarization (FP) with FITC-labeled phosphopeptides, 14-3-3ε
T1 sequence (P62258 1-255): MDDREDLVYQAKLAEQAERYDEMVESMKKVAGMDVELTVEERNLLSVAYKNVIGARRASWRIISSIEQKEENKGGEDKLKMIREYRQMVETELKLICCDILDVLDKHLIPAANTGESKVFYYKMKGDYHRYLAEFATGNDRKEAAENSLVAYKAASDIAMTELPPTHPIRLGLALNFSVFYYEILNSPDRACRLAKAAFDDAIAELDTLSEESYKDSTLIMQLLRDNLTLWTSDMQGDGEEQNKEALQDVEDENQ
Protocol: (§1) Fig. 4 14-3-3 isoform binding specificity of Nedd4-2 phosphomotifs. Binding of FITC-labeled phosphopeptides with 14-3-3 binding motifs of Nedd4-2 (pSer^342, pThr^367 or pSer^448) to all human 14-3-3 isoforms was characterized by FP titrations. The binding affinities of these peptides were determined by fitting FP data to a one-site binding model. The corresponding sequences of these peptides are shown at the top. Background polarization was subtracted from all values. Results are expressed as mean ± SD (n = 3). Error bars are not visible if they are smaller than the size of the symbol.
(§2) The FP assay was performed using a CLARIOstar microplate reader (BMG Labtech, […]) on 384-well black low-volume flat-bottom plates (Corning, New York, USA) in a buffer containing 10 mM HEPES (pH 7.4), 150 mM NaCl, 0.1% (v/v) Tween 20 and 0.1% (w/v) BSA. […] The excitation and emission wavelengths were 482 nm and 530 nm, respectively. The KD values were determined as the mean of three independent measurements using GraphPad Prism version 8.0.1 for Windows, GraphPad Software, La Jolla California USA, www.graphpad.com.
(§3) Results from the FP assay (Fig. 4) and immunoblot (Supplementary Fig. S1) are represented as means ± SD from three replicates as indicated in the figure legend. Statistical analysis for the data from immunoblot were performed using Graph-Pad Prism 8.4. Student’s t-test was used for comparison of relative changes of samples with and without 14-3-3η at selected timepoints (ns, non-significant P > 0.05; *, P < 0.05).

[2] = biological target: T2, 14-3-3ζ (Homo sapiens, UniProt P63104); assay: fluorescence polarization (FP) with FITC-labeled phosphopeptides, 14-3-3ζ
T2 sequence (P63104 1-245): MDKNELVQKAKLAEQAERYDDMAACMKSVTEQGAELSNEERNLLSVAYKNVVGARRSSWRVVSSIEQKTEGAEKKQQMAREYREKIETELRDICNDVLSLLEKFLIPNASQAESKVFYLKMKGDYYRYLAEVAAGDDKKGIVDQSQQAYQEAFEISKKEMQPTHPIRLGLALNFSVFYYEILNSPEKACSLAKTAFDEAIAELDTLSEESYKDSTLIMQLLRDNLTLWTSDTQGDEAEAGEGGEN
Protocol: as §1, §2, §3

[3] = biological target: T3, 14-3-3τ (Homo sapiens, UniProt P27348); assay: fluorescence polarization (FP) with FITC-labeled phosphopeptides, 14-3-3τ
T3 sequence (P27348 1-245): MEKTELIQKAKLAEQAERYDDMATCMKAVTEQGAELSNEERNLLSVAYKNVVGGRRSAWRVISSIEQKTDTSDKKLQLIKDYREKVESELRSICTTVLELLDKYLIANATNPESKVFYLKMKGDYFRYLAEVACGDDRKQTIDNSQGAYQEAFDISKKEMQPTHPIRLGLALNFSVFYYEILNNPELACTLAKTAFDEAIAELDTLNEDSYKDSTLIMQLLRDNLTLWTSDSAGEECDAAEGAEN
Protocol: as §1, §2, §3

[4] = biological target: T4, 14-3-3β (Homo sapiens, UniProt P31946); assay: fluorescence polarization (FP) with FITC-labeled phosphopeptides, 14-3-3β
T4 sequence (P31946 1-246): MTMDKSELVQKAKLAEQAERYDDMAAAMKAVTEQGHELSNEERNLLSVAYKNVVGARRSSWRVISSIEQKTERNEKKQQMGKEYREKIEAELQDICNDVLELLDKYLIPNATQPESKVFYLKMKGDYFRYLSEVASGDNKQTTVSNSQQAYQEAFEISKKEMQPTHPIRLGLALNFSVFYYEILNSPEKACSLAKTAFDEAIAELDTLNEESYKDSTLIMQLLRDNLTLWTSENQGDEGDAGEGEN
Protocol: as §1, §2, §3

[5] = biological target: T5, 14-3-3η (Homo sapiens, UniProt Q04917); assay: fluorescence polarization (FP) with FITC-labeled phosphopeptides, 14-3-3η
T5 sequence (Q04917 1-246): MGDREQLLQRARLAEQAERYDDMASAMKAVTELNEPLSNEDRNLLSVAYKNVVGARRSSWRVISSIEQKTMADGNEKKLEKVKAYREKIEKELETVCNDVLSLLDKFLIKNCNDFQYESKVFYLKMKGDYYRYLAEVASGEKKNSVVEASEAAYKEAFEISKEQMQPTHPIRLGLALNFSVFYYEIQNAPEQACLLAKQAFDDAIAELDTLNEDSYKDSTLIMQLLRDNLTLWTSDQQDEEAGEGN
Protocol: as §1, §2, §3

[6] = biological target: T6, 14-3-3σ (Homo sapiens, UniProt P31947); assay: fluorescence polarization (FP) with FITC-labeled phosphopeptides, 14-3-3σ
T6 sequence (P31947 1-248): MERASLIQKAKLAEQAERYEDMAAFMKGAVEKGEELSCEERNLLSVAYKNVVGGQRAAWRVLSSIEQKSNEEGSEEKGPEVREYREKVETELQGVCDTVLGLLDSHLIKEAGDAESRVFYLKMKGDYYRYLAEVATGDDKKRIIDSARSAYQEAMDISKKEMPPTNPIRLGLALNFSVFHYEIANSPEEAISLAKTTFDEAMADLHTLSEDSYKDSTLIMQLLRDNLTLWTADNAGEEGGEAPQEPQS
Protocol: as §1, §2, §3

[7] = biological target: T7, 14-3-3γ (Homo sapiens, UniProt P61981); assay: fluorescence polarization (FP) with FITC-labeled phosphopeptides, 14-3-3γ
T7 sequence (P61981 1-247): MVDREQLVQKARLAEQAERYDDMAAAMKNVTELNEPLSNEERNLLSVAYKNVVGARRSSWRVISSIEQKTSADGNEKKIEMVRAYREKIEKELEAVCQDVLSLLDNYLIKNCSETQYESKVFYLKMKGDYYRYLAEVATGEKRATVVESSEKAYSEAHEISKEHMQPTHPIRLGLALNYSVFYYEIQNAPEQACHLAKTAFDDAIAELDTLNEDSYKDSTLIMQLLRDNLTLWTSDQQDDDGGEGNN
Protocol: as §1, §2, §3

Row | Compound | Bmax (One site -- Specific binding, best-fit value) [1] | Bmax (One site -- Specific binding, best-fit value) [2] | Bmax (One site -- Specific binding, best-fit value) [3] | Bmax (One site -- Specific binding, best-fit value) [4] | Bmax (One site -- Specific binding, best-fit value) [5] | Bmax (One site -- Specific binding, best-fit value) [6] | Bmax (One site -- Specific binding, best-fit value) [7]
1 | CC(C)C[C@H](NC(=S)Nc1ccc2c(c1)C(=O)OC21c2ccc(O)cc2Oc2cc(O)ccc21)C(=O)N[C@@H](CCCNC(=N)N)C(=O)N[C@@H](CO)C(=O)N[C@@H](CS)C(=O)N[C@@H](COP(=O)(O)O)C(=O)N[C@H](C(=O)N[C@H](C(=O)N[C@@H](CC(=O)O)C(=O)N[C@@H](C)C(=O)N[C@H](C(=O)O)C(C)C)[C@@H](C)O)C(C)C [Nedd4-2 peptide pS342] ({FITC}-LRSC[pS]VTDAV-OH; C-terminus assumed) | 0.261 | 0.1453 | 0.1186 | 0.1665 | 0.164 | 0.9999 | 0.2226
2 | CC(C)[C@H](NC(=O)[C@@H](NC(=O)[C@H](CO)NC(=O)[C@H](CO)NC(=O)[C@H](CCCNC(=N)N)NC(=O)[C@H](C)NC(=S)Nc1ccc2c(c1)C(=O)OC21c2ccc(O)cc2Oc2cc(O)ccc21)[C@@H](C)OP(=O)(O)O)C(=O)N[C@H](C(=O)NCC(=O)NCC(=O)N[C@@H](CCC(=O)O)C(=O)O)[C@@H](C)O [Nedd4-2 peptide pT367] ({FITC}-ARSS[pT]VTGGE-OH; C-terminus assumed) | 0.3092 | 1.002 | 0.7863 | 0.9561 | 0.8265 | 0.1205 | 0.9894
3 | CC(C)C[C@H](NC(=O)[C@H](CO)NC(=O)[C@H](CCCNC(=N)N)NC(=O)[C@@H]1CCCN1C(=S)Nc1ccc2c(c1)C(=O)OC21c2ccc(O)cc2Oc2cc(O)ccc21)C(=O)N[C@@H](COP(=O)(O)O)C(=O)N[C@@H](CO)C(=O)N1CCC[C@H]1C(=O)N[C@H](C(=O)N[C@H](C(=O)N[C@H](C(=O)O)[C@@H](C)O)C(C)C)[C@@H](C)O [Nedd4-2 peptide pS448] ({FITC}-PRSL[pS]SPTVT-OH; C-terminus assumed) | 0.7529 | 0.9954 | 0.8496 | 1 | 0.8968 | 0.7456 | 0.9424
